Assays:
[1] = system: H78 (DNA, G4) TTAGGGTTAGGGTTAGGGTTAGGGTTAGGGTTAGGGTTAGGGTTAGGGTTAGGGTTAGGGTTAGGGTTAGGGTTAGGG; assay: melting; details: 150 mM Na+; 10 mM Tris-HCl pH 7.5; BMVC:H78 molar ratio 10; ~51 to ~68 °C
[2] = system: H24 (DNA, G4) TTAGGGTTAGGGTTAGGGTTAGGG; assay: CD melting at 295 nm; details: 150 mM Na+; 10 mM Tris-HCl pH 7.5; BMVC:H24 molar ratio 5

C[n+]1ccc(C=Cc2ccc3[nH]c4ccc(C=Cc5cc[n+](C)cc5)cc4c3c2)cc1
melting temperature increase [1]: ~ 17 °C | melting temperature increase [2]: 18 °C
